Reference: patent EP0313908A2, “Halogen-substituted phenoxyphenylpropionic acid derivatives” (BAYER AG, priority 1987, dated 1989)

Assays:
[1] = test system: Mais; conditions: in vivo
Description: (§1) Post-emergence-Test Lösungsmittel: 5 Gewichtsteile Aceton Emulgator: 1 Gewichtsteil Alkylarylpolyglykolether
(§2) Zur Herstellung einer zweckmäßigen Wirkstoffzubereitung vermischt man 1 Gewichtsteil Wirkstoff mit der angegebenen Menge Lösungsmittel, gibt die angegebene Menge Emulgator zu und verdünnt das Konzentrat mit Wasser auf die gewünschte Konzentration.
(§3) Mit der Wirkstoffzubereitung spritzt man Testpflanzen, welch eine Höhe von 5 - 15 cm haben so, daß die jeweils gewünschten Wirkstoffmengen pro Flächeneinheit ausgebracht werden. Die Konzentration der Spritzbrühe wird so gewählt, daß in 2000 l Wasser/ha die jeweils gewünschten Wirkstoffmengen ausgebracht werden. Nach drei Wochen wird der Schädigungsgrad der Pflanzen bonitiert in % Schädigung im Vergleich zur Entwicklung der unbehandelten Kontrolle. Es bedeuten: 0 % = keine Wirkung (wie unbehandelte Kontrolle) 100 % = totale Vernichtung

[2] = test system: Unkräuter, wie z. B. Amaranthus, Chenopodium, Ipomoea, Portulak und Solanum; experiment: Post-emergence test (herbicidal action on weeds); format: in vivo; conditions: post-emergence spray on test plants 5 - 15 cm high, 2000 l Wasser/ha; damage rated after three weeks against untreated control; stated in comparison with Vergleichssubstanz (A)
Description: as §1, §2, §3

[3] = test system: Baumwollpflanzen; experiment: Defoliation and desiccation of the leaves of cotton; format: in vivo, Baumwolle; conditions: cotton plants in the greenhouse, 5th leaf fully unfolded, sprayed dripping wet; rated after 1 week against control plants (scale 0, +, ++, +++)
Description: Entlaubung und Austrocknung der Blätter bei Baumwolle
Lösungsmittel: 30 Gewichtsteile Dimethylformamid Emulgator: 1 Gewichtsteil Polyoxyethylen-Sorbitan-Monolaurat
Zur Herstellung einer zweckmäßigen Wirkstoffzubereitung vermischt man 1 Gewichtsteil Wirkstoff mit den angegebenen Mengen Lösungsmittel und Emulgator und füllt mit Wasser auf die gewünschte Konzentration auf.
Baumwollpflanzen werden im Gewächshaus bis zur vollen Entfaltung des 5. Folgeblattes angezogen. In diesem Stadium werden die Pflanzen tropfnaß mit den Wirkstoffzubereitungen besprüht. Nach 1 Woche werden der Blattfall und das Austrocknen der Blätter im Vergleich zu den Kontrollpflanzen bonitiert. Es bedeuten: 0 kein Austrocknen der Blätter, kein Blattfall + leichtes Austrocknen der Blätter, geringer Blattfall ++ starkes Austrocknen der Blätter, starker Blattfall +++ sehr starkes Austrocknen der Blätter, sehr starker Blattfall

Selektivität in Mais [1] | SMILES | Wirkung gegen Unkräuter [2] | Austrocknen der Blätter [3] | Blattfall [3]
guter Selektivität | COC(=O)C(Cl)Cc1cc(Oc2c(Cl)cc(C(F)(F)F)cc2Cl)ccc1Cl (stereo not drawn) [Beispiel 1, 2-Chlor-3-[3-(2,6-dichlor-4-trifluormethyl-phenoxy)-6-chlor-phenyl]-propionsäure-methylester] | erheblich stärkere Wirkung | sehr starkes | sehr starken
guter Selektivität | COC(=O)C(Br)Cc1cc(Oc2c(Cl)cc(C(F)(F)F)cc2Cl)c(Cl)cc1Cl (stereo not drawn) [Beispiel 2, 2-Brom-3-[3-(2,6-dichlor-4-trifluormethyl-phenoxy)-4,6-dichlorphenyl]-propionsäuremethylester] | erheblich stärkere Wirkung |  | 
guter Selektivität | COC(=O)CCc1cc(Oc2c(Cl)cc(C(F)(F)F)cc2Cl)ccc1Cl [Beispiel 3, 3-[3-(2,6-dichlor-4-trifluormethyl-phenoxy)-6-chlor-phenyl]-propionsäuremethylester] | erheblich stärkere Wirkung | sehr starkes | sehr starken
guter Selektivität | COC(=O)CC(Br)c1cc(Oc2c(Cl)cc(C(F)(F)F)cc2Cl)ccc1Cl (stereo not drawn) [Beispiel 4, 3-Brom-3-[3-(2,6-dichlor-4-trifluormethyl-phenoxy)-6-chlorphenyl]-propionsäuremethylester] | erheblich stärkere Wirkung |  | 
